Measurements as given in US20060074103A1, “Cyclic beta-amino acid derivatives as factor Xa inhibitors” (priority 2004, published 2006).

## O=C(N[C@H]1CCCC[C@@H]1C(=O)Nc1ccc(Cl)cn1)c1ccc(-n2ccccc2=O)cc1 [Example 1]
  melting point: 301 to 303 °C
